# Measured values published in patent publication US12479843B2, “Spiro ring-containing quinazoline compounds” (WIGEN BIOMEDICINE TECHNOLOGY (SHANGHAI) CO., LTD., priority 2019, dated 2025).
# Where two headings read alike, the source gives them in different places.
# Key:
# [1] = system: Human pancreatic cancer Mia PaCa-2 cells; test: Antitumor activity on graft tumors of human pancreatic cancer Mia PaCa-2 in nude mice; assay type: in vivo; conditions: Mia PaCa-2 graft tumors in nude mice, 10 mg/kg intragastric, qd*21
# Protocol: Human pancreatic cancer Mia PaCa-2 cells were cultured conventionally in 1640 medium containing 10% fetal bovine serum in a 37° C./5% CO2 incubator. After passage, the cells were collected when they reached the desired amount. 1×10^7 Mia PaCa-2 cells were injected into the left dorsal side of each nude mouse, and the animals were randomly grouped for administration after tumors grew to 150 mm3. The groups are as follows: 1) a solvent control group of 8 mice; and 2) compound 1 group, compound 2 group, compound 5 group, compound 31 group, compound 131 group, compound 142 group, compound 171 group, compound B group and compound C group, with 8 mice per group. Mice in the solvent control group were subjected to intragastric administration of 0.5% CMC-Na once daily; mice in compound 1 group, compound 2 group, compound 5 group, compound 31 group, compound 131 group, compound 142 group, compound 171 group, compound B group and compound C group were subjected to intragastric administration of a suspension of a compound in 0.5% CMC-Na once daily. On Tuesday and Thursday each week, tumor volumes and body weight of the mice were measured, and the nude mice were sacrificed on day 21 of administration.
# pERK level in H358 cells = test: pERK and ERK protein content assay in H358 cells (ELISA); assay type: cell-based; conditions: 24 h, pERK/ERK ratio compared with DMSO group; for inhibition at 1 µM: Homo sapiens, NCI-H358, compound 1 μM, read-out: Inhibition rate (%) of pERK level; for Inhibition rate (%) of pERK level: compound 1 μM
# Summary of the method: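 H358 cells grown one day, then treated 24 h with compound at 1 μM. pERK and ERK in lysates measured by ELISA; pERK/ERK ratio expressed as percent inhibition versus DMSO.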
# [2] = Pharmacokinetic evaluation in mice; assay type: in vivo, male ICR mice; conditions: for Vd: read-out: Vss; for F: po 10 mg/kg vs iv 2 mg/kg
# Protocol: The compounds were administered by intravenous injection at a dose of 2 mg/kg and oral gavage at a dose of 10 mg/kg (0.5% CMC-Na suspension). 15 male ICR mice were selected for each group, and each mouse was subjected to blood collection at 3 discrete time points, with 3 mice per time point. The time points of sampling were as follows: before the administration, and at 5 min, 15 min, 30 min, 1 h, 3 h, 5 h, 8 h, 12 h and 24 h after the administration. 80 μL of blood was collected from the eye sockets or the hearts of the mice at each of the time points after the administration. All whole blood samples were collected in tubes containing EDTA K2 and centrifuged (1500-1600 rmp) at 4° C. for 10 min to isolate plasma, which was then stored in a refrigerator at −90 to −60° C. for sample analysis. The compound concentration in the plasma was determined by liquid chromatography-tandem mass spectrometry, and the corresponding pharmacokinetic parameters were obtained according to a plasma concentration-time curve.
# H358 cells = test: Antiproliferative activity against H358 cells (Cell Titer Glow, ultra-low attachment plate); assay type: cell-based; conditions: three days after addition of compound
# Protocol: 2500 H358 cells were seeded in a 96-well ultra-low attachment plate (corning, 7007). After one day of growth, a serially diluted compound (a maximum concentration of 5 μM, 5-fold dilution, a total of five doses) was added. Three days after the addition of the compound, Cell Titer Glow (Promega, G9681) was added to evaluate pellet growth, and the IC50 value was calculated.
# [3] = male, ICR, mouse, plasma, iv, 2 mg/kg
# [4] = male, ICR, mouse, plasma, iv, 2 mg/kg, read-out: Cmax
# [5] = male, ICR, mouse, plasma, iv, 2 mg/kg, read-out: Tmax
# [6] = male, ICR, mouse, plasma, po, 10 mg/kg, 0.5% CMC-Na suspension
# [7] = male, ICR, mouse, plasma, po, 10 mg/kg, 0.5% CMC-Na suspension, read-out: Cmax
# [8] = male, ICR, mouse, plasma, po, 10 mg/kg, 0.5% CMC-Na suspension, read-out: Tmax
# [9] = Homo sapiens, NCI-H358, 72 h, 96-well ultra-low attachment plate, Cell Titer Glow
# [10] = po, 10 mg/kg, 0.5% CMC-Na suspension
# [11] = 96-well ultra-low attachment plate, Cell Titer Glow
smiles,measurement,setting,value
"C=CC(=O)N1CC2(CCN(c3nc(OC4CCN(CCOC)CC4)nc4c(OCC(F)(F)F)c(-c5c(C)ccc6[nH]ncc56)c(C5CC5)cc34)CC2)C1 [B, reference compound]",Anti-tumor effect (regression),[1],25% regression
same,inhibition at 1 µM,pERK level in H358 cells,> 90%
same,AUC(0-t),[2]; [3],7.82 µg·h/mL
same,clearance,[2]; [3],0.252 L/h/kg
same,half-life,[2]; [3],4.47 h
same,Cmax,[2]; [4],2.88 µg/mL
same,Tmax,[2]; [5],0.083 h
same,Vd,[2]; [3],1.01 L/kg
same,AUC(0-t),[2]; [6],10.3 µg·h/mL
same,half-life,[2]; [6],3.74 h
same,Cmax,[2]; [7],1.3 µg/mL
same,Tmax,[2]; [8],2 h
same,F,[2],26.5%
same,IC50,H358 cells; [9],< 0.3 µM
same,IC50,"H358 cells; Homo sapiens, NCI-H358, 72 h",0.0046 µM
C=C(F)C(=O)N1CC2(CCN(c3nc(OC4CCN(CCOC)CC4)nc4c(OCC)c(-c5c(C)ccc6[nH]ncc56)c(C5CC5)cc34)CC2)C1 [Compound 2],Anti-tumor effect (regression),[1],23% regression
same,inhibition at 1 µM,pERK level in H358 cells,> 90%
same,IC50,H358 cells; [9],< 0.3 µM
C=CC(=O)N1CC2(CCN(c3nc(OC4CC5(CCN(CCOC)CC5)C4)nc4c(OCC(F)(F)F)c(-c5c(C)ccc6[nH]ncc56)c(C5CC5)cc34)CC2)C1 [Compound 131],Anti-tumor effect (regression),[1],37% regression
same,inhibition at 1 µM,pERK level in H358 cells,> 90%
same,AUC(0-t),[2]; [3],11.3 µg·h/mL
same,clearance,[2]; [3],0.112 L/h/kg
same,half-life,[2]; [3],4.12 h
same,Cmax,[2]; [4],2.35 µg/mL
same,Tmax,[2]; [5],0.5 h
same,Vd,[2]; [3],2.1 L/kg
same,AUC(0-t),[2]; [6],22.3 µg·h/mL
same,half-life,[2]; [6],5.86 h
same,Cmax,[2]; [7],1.82 µg/mL
same,Tmax,[2]; [8],2 h
same,F,[2],39.4%
same,IC50,H358 cells; [9],< 0.3 µM
same,IC50,"H358 cells; Homo sapiens, NCI-H358, 72 h",0.0015 µM
"C=CC(=O)N1CC2(CCN(c3nc(N4CC(N(C)C)C4)nc4c(OCC(F)(F)F)c(-c5c(C)ccc6[nH]ncc56)c(C=C)cc34)CC2)C1 [Compound C, reference compound]",Anti-tumor effect (regression),[1],8% regression
same,Inhibition rate (%) of pERK level,pERK level in H358 cells,+++ (+++ indicates an inhibition rate greater than 90%.)
same,Cl,"[2]; iv, 2 mg/kg",0.099 L/h/kg
same,Cmax,"[2]; iv, 2 mg/kg",3.21 µg/mL
same,Tmax,"[2]; iv, 2 mg/kg",0.083 h
same,Vss,"[2]; iv, 2 mg/kg",0.481 L/kg
same,t1/2,"[2]; iv, 2 mg/kg",4.02 h
same,F,[2],24.6%
same,Cmax,[2]; [10],3.11 µg/mL
same,Tmax,[2]; [10],0.5 h
same,t1/2,[2]; [10],3.38 h
same,IC50,H358 cells; [11],< 0.3 µM
same,IC50,H358 cells,0.0051 µM
C=C(F)C(=O)N1CC2(CCN(c3nc(OC4CCN(CCOC)CC4)nc4c(OCC(F)(F)F)c(-c5c(C)ccc6[nH]ncc56)c(C5CC5)cc34)CC2)C1 [Compound 1],Anti-tumor effect (regression),[1],39% regression
same,Inhibition rate (%) of pERK level,pERK level in H358 cells,+++ (+++ indicates an inhibition rate greater than 90%.)
same,Cl,"[2]; iv, 2 mg/kg",0.14 L/h/kg
same,Cmax,"[2]; iv, 2 mg/kg",2.557 µg/mL
same,Tmax,"[2]; iv, 2 mg/kg",1 h
same,Vss,"[2]; iv, 2 mg/kg",0.782 L/kg
same,t1/2,"[2]; iv, 2 mg/kg",4.31 h
same,F,[2],29.0%
same,Cmax,[2]; [10],1.543 µg/mL
same,Tmax,[2]; [10],4 h
same,t1/2,[2]; [10],6.94 h
same,IC50,H358 cells; [11],< 0.3 µM
C=Cc1cc2c(N3CCC4(CC3)CN(C(=O)C(=C)F)C4)nc(OC3CCN(CCOC)CC3)nc2c(OCC(F)(F)F)c1-c1c(C)ccc2[nH]ncc12 [Compound 5],Anti-tumor effect (regression),[1],30% regression
same,inhibition at 1 µM,pERK level in H358 cells,> 90%
same,IC50,H358 cells; [9],< 0.3 µM
C=C(F)C(=O)N1CC2(CCN(c3nc(OC[C@@H]4COCCN4CCOC)nc4c(OCC(F)(F)F)c(-c5c(C)ccc6[nH]ncc56)c(C5CC5)cc34)CC2)C1 [Compound 118],inhibition at 1 µM,pERK level in H358 cells,> 90%
same,IC50,H358 cells; [9],< 0.3 µM
C=CC(=O)N1CC2(C1)CN(c1nc(OC3CCN(CCOC)CC3)nc3c(OCC(F)(F)F)c(-c4c(C)ccc5[nH]ncc45)c(C4CC4)cc13)C2 [Compound 26],inhibition at 1 µM,pERK level in H358 cells,50 to 90%
same,IC50,H358 cells; [9],0.3 to 1 µM
C=CC(=O)N1CC2(CCN(c3nc(N4CC(N5CCC(F)(F)CC5)C4)nc4c(OCC(F)(F)F)c(-c5c(C)ccc6[nH]ncc56)c(C5CC5)cc34)CC2)C1 [Compound 180],inhibition at 1 µM,pERK level in H358 cells,> 90%
same,IC50,H358 cells; [9],0.3 to 1 µM
C=CC(=O)N1CC2(CCN(c3nc(N4CC(N5CCOCC5)C4)nc4c(OCC(F)(F)F)c(-c5c(C)ccc6[nH]ncc56)c(C5CC5)cc34)CC2)C1 [Compound 146],inhibition at 1 µM,pERK level in H358 cells,> 90%
same,IC50,H358 cells; [9],< 0.3 µM
C=CC(=O)N1CC2(CCN(c3nc(N4CC5(C4)[C@H](OC)CCN5C)nc4c(OCC(F)(F)F)c(-c5c(C)ccc6[nH]ncc56)c(C5CC5)cc34)CC2)C1 [Compound 276],inhibition at 1 µM,pERK level in H358 cells,> 90%
same,IC50,H358 cells; [9],< 0.3 µM
